Assay results: patent US9394282B2, “Pyrazole carboxamides as Janus kinase inhibitors” (Merck Sharp & Dohme Corp., priority 2011, dated 2016)

Biological target: JAK1 (Homo sapiens (Human), UniProt P23458)
Assay: Jak biochemical HTRF assay, JAK1
Conditions: recombinant purified GST-tagged catalytic domain; HTRF format; [ATP] 31.8 μM
From the text: (§1) Jak Biochemical HTRF Assay Protocol
(§2) Subsequent reagent additions employed an Agilent Bravo.

JAK1, sequence (P23458 875-1153): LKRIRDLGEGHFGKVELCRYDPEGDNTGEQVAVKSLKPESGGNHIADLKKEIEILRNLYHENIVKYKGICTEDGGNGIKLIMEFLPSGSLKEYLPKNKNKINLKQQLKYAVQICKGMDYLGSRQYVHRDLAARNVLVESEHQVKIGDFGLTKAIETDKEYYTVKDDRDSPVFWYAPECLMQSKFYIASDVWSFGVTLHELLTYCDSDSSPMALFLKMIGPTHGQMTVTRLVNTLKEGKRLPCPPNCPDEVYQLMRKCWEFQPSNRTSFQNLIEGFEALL

IC50	SMILES
5 nM	N#C[C@H]1CS(=O)(=O)CC1n1cc(C(N)=O)c(Nc2ccnc(F)c2)n1 (mixture of isomers) [Example 8-8, 1-((3S,4S and 3R,4R)-4-cyano-1,1-dioxidotetrahydrothiophen-3-yl)-3-((2-fluoropyridin-4-yl)amino)-1H-pyrazole-4-carboxamide]
26 nM	N#C[C@H]1CCOC[C@@H]1n1cc(C(N)=O)c(Nc2ccc(Cl)c(Cl)c2)n1 (single isomer, unassigned) [Example 9-10, 1-[(3R,4S or 3S,4R)-4-cyanotetrahydro-2H-pyran-3-yl]-3-[(3,4-dichlorophenyl)amino]-1H-pyrazole-4-carboxamide]
0.4 nM	N#C[C@@H]1CCOC[C@H]1n1cc(C(N)=O)c(Nc2ccc(Cl)c(Cl)c2)n1 (single isomer, unassigned) [Example 9-11, 1-[(3S,4R or 3R,4S)-4-cyanotetrahydro-2H-pyran-3-yl]-3-[(3,4-dichlorophenyl)amino]-1H-pyrazole-4-carboxamide]
16 nM	N#C[C@H]1CCOC[C@@H]1n1cc(C(N)=O)c(Nc2ccc(Cl)c(F)c2)n1 (single isomer, unassigned) [Example 9-12, 3-[(4-chloro-3-fluorophenyl)amino]-1-[(3R,4S or 3S,4R)-4-cyanotetrahydro-2H-pyran-3-yl]-1H-pyrazole-4-carboxamide]
0.2 nM	N#C[C@@H]1CCOC[C@H]1n1cc(C(N)=O)c(Nc2ccc(Cl)c(F)c2)n1 (single isomer, unassigned) [Example 9-13, 3-[(4-chloro-3-fluorophenyl)amino]-1-[(3S,4R or 3R,4S)-4-cyanotetrahydro-2H-pyran-3-yl]-1H-pyrazole-4-carboxamide]
0.7 nM	N#C[C@H]1CCOC[C@@H]1n1cc(C(N)=O)c(Nc2ccc(C(F)(F)F)nc2)n1 (single isomer, unassigned) [Example 9-14, 1-[(3R,4S or 3S,4R)-4-cyanotetrahydro-2H-pyran-3-yl]-3-{[6-(trifluoromethyl)pyridin-3-yl]amino}-1H-pyrazole-4-carboxamide]
46 nM	N#C[C@@H]1CCOC[C@H]1n1cc(C(N)=O)c(Nc2ccc(C(F)(F)F)nc2)n1 (single isomer, unassigned) [Example 9-15, 1-[(3S,4R or 3R,4S)-4-cyanotetrahydro-2H-pyran-3-yl]-3-{[6-(trifluoromethyl)pyridin-3-yl]amino}-1H-pyrazole-4-carboxamide]
21 nM	N#C[C@@H]1CCOC[C@H]1n1cc(C(N)=O)c(Nc2cnc3cc(Cl)ccc3c2)n1 (single isomer, unassigned) [Example 9-21, 3-[(7-chloroquinolin-3-yl)amino]-1-[(3S,4R or 3R,4S)-4-cyanotetrahydro-2H-pyran-3-yl]-1H-pyrazole-4-carboxamide]
0.5 nM	N#C[C@H]1CCOC[C@@H]1n1cc(C(N)=O)c(Nc2cnc3cc(Cl)ccc3c2)n1 (single isomer, unassigned) [Example 9-22, 3-[(7-chloroquinolin-3-yl)amino]-1-[(3R,4S or 3S,4R)-4-cyanotetrahydro-2H-pyran-3-yl]-1H-pyrazole-4-carboxamide]
3 nM	COC(C)(C)c1ccc(Nc2nn([C@H]3COCC[C@@H]3C#N)cc2C(N)=O)cc1 (single isomer, unassigned) [Example 9-23, 1-[(3R,4S or 3S,4R)-4-cyanotetrahydro-2H-pyran-3-yl]-3-{[4-(1-methoxy-1-methylethyl)phenyl]amino}-1H-pyrazole-4-carboxamide]
0.1 nM	COC(C)(C)c1ccc(Nc2nn([C@@H]3COCC[C@H]3C#N)cc2C(N)=O)cc1 (single isomer, unassigned) [Example 9-25, 1-[(3S,4R or 3R,4R)-4-cyanotetrahydro-2H-pyran-3-yl]-3-{[4-(1-methoxy-1-methylethyl)phenyl]amino}-1H-pyrazole-4-carboxamide]
10 nM	N#C[C@H]1CCOC[C@@H]1n1cc(C(N)=O)c(Nc2ccccc2)n1 (single isomer, unassigned) [Example 9-37, 1-[(3S,4R or 3R,4S)-4-cyanotetrahydro-2H-pyran-3-yl]-3-(phenylamino)-1H-pyrazole-4-carboxamide]
0.3 nM	N#C[C@@H]1CCOC[C@H]1n1cc(C(N)=O)c(Nc2ccccc2)n1 (single isomer, unassigned) [Example 9-38, 1-[(3R,4S or 3S,4R)-4-cyanotetrahydro-2H-pyran-3-yl]-3-(phenylamino)-1H-pyrazole-4-carboxamide]

Biological target: JAK2 (Homo sapiens (Human), UniProt O60674)
Sequence (O60674 849-1124): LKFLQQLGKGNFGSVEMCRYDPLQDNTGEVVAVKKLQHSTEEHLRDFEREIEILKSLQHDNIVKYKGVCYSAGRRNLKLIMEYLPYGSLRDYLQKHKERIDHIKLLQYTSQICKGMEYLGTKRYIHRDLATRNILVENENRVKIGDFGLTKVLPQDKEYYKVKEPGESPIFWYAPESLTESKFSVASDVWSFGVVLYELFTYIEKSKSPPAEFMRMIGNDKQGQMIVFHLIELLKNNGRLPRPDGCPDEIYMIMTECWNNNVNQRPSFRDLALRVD
Assay: Jak biochemical HTRF assay, JAK2
Conditions: recombinant purified GST-tagged catalytic domain; HTRF format; [ATP] 8.5 μM
From the text: as §1, §2

IC50	SMILES
841 nM	CC(C)(C)OC(=O)N1CCC(n2cc(C(N)=O)c(Nc3ccc(F)cc3)n2)[C@H](C#N)C1 (mixture of isomers) [Example 2-2, (3R,4S and 3S,4R)-tert-butyl 4-(4-carbamoyl-3-((4-fluorophenyl)amino)-1H-pyrazol-1-yl)-3-cyanopiperidine-1-carboxylate]
367 nM	CC(C)(C)OC(=O)N1CCC(n2cc(C(N)=O)c(Nc3ccc(F)cc3)n2)[C@@H](C#N)C1 (mixture of isomers) [Example 2-3, (3S,4S and 3R,4R)-tert-butyl 4-(4-carbamoyl-3-((4-fluorophenyl)amino)-1H-pyrazol-1-yl)-3-cyanopiperidine-1-carboxylate]
755 nM	CC(C)COC(=O)N1CC[C@@H](n2cc(C(N)=O)c(Nc3ccc(F)cc3)n2)[C@H](C#N)C1 (racemic) [Example 5-10, 2-methylpropyl (3R,4R and 3S,4S)-4-{4-carbamoyl-3-[(4-fluorophenyl)amino]-1H-pyrazol-1-yl}-3-cyanopiperidine-1-carboxylate]
369 nM	N#C[C@@H]1CN(C(=O)OCc2ccccc2)CC[C@H]1n1cc(C(N)=O)c(Nc2ccc(F)cc2)n1 (racemic) [Example 5-12, benzyl (3R,4R and 3S,4S)-4-{4-carbamoyl-3-[(4-fluorophenyl)amino]-1H-pyrazol-1-yl}-3-cyanopiperidine-1-carboxylate]
1070 nM	CN1CCN(CCOC(=O)N2CC[C@@H](n3cc(C(N)=O)c(Nc4ccc(F)cc4)n3)[C@H](C#N)C2)CC1 (racemic) [Example 5-24, 2-(4-methylpiperazin-1-yl)ethyl (3R,4R and 3S,4S)-4-{4-carbamoyl-3-[(4-fluorophenyl)amino]-1H-pyrazol-1-yl}-3-cyanopiperidine-1-carboxylate]
413 nM	CC1(COC(=O)N2CC[C@@H](n3cc(C(N)=O)c(Nc4ccc(F)cc4)n3)[C@H](C#N)C2)COC1 (racemic) [Example 5-33, (3-methyloxetan-3-yl)methyl (3R,4R and 3S,4S)-4-{4-carbamoyl-3-[(4-fluorophenyl)amino]-1H-pyrazol-1-yl}-3-cyanopiperidine-1-carboxylate]
154 nM	C#CCCOC(=O)N1CC[C@@H](n2cc(C(N)=O)c(Nc3ccc(F)cc3)n2)[C@H](C#N)C1 (racemic) [Example 5-34, but-3-yn-1-yl (3R,4R and 3S,4S)-4-{4-carbamoyl-3-[(4-fluorophenyl)amino]-1H-pyrazol-1-yl}-3-cyanopiperidine-1-carboxylate]
1390 nM	C#CCCOC(=O)N1CC[C@H](n2cc(C(N)=O)c(Nc3ccc(F)cc3)n2)[C@H](C#N)C1 (racemic) [Example 5-40, but-3-yn-1-yl (3R,4S and 3S,4R)-4-{4-carbamoyl-3-[(4-fluorophenyl)amino]-1H-pyrazol-1-yl}-3-cyanopiperidine-1-carboxylate]
> 1500 nM	CC1(COC(=O)N2CC[C@H](n3cc(C(N)=O)c(Nc4ccc(F)cc4)n3)[C@H](C#N)C2)COC1 (racemic) [Example 5-45, (3-methyloxetan-3-yl)methyl (3R,4S and 3S,4R)-4-{4-carbamoyl-3-[(4-fluorophenyl)amino]-1H-pyrazol-1-yl}-3-cyanopiperidine-1-carboxylate]
> 1500 nM	N#C[C@@H]1CN(C(=O)OCc2ccccc2)CC[C@@H]1n1cc(C(N)=O)c(Nc2ccc(F)cc2)n1 (racemic) [Example 5-52, benzyl (3R,4S and 3S,4R)-4-{4-carbamoyl-3-[(4-fluorophenyl)amino]-1H-pyrazol-1-yl}-3-cyanopiperidine-1-carboxylate]
> 1500 nM	CC(C)COC(=O)N1CC[C@H](n2cc(C(N)=O)c(Nc3ccc(F)cc3)n2)[C@H](C#N)C1 (racemic) [Example 5-56, 2-methylpropyl (3R,4S and 3S,4R)-4-{4-carbamoyl-3-[(4-fluorophenyl)amino]-1H-pyrazol-1-yl}-3-cyanopiperidine-1-carboxylate]
> 1500 nM	N#C[C@@H]1CN(C(=O)OC2CCCCC2)CC[C@@H]1n1cc(C(N)=O)c(Nc2ccc(F)cc2)n1 (racemic) [Example 5-61, cyclohexyl (3R,4S and 3S,4R)-4-{4-carbamoyl-3-[(4-fluorophenyl)amino]-1H-pyrazol-1-yl}-3-cyanopiperidine-1-carboxylate]
41 nM	CC(C)(C#N)COC(=O)N1CC[C@@H](C#N)C(n2cc(C(N)=O)c(Nc3ccc(F)cc3)n2)C1 (mixture of isomers) [Example 5-69, 2-Cyano-2-methylpropyl (3S,4R and 3R,4S)-3-{4-carbamoyl-3-[(4-fluorophenyl)amino]-1H-pyrazol-1-yl}-4-cyanopiperidine-1-carboxylate]
56 nM	N#C[C@@H]1CCN(C(=O)OCCF)CC1n1cc(C(N)=O)c(Nc2ccc(F)cc2)n1 (mixture of isomers) [Example 5-79, 2-fluoroethyl (3S,4R and 3R,4S)-3-{4-carbamoyl-3-[(4-fluorophenyl)amino]-1H-pyrazol-1-yl}-4-cyanopiperidine-1-carboxylate]

Same assay, conditions: recombinant purified GST-tagged catalytic domain; HTRF format; [ATP] […]

SMILES	IC50
N#C[C@@H]1CN(C(=O)OC2CCCCC2)CC[C@H]1n1cc(C(N)=O)c(Nc2ccc(F)cc2)n1 (mixture of isomers) [Example 5-17, cyclohexyl (3R,4R and 3S,4S)-4-{4-carbamoyl-3-[(4-fluorophenyl)amino]-1H-pyrazol-1-yl}-3-cyanopiperidine-1-carboxylate]	1230 nM
Cn1nccc1CN1CC[C@@H](n2cc(C(N)=O)c(Nc3ccc(F)cc3)n2)[C@H](C#N)C1 (mixture of isomers) [Example 6-32, 1-{(3R,4R and 3S,4S)-3-cyano-1-[(1-methyl-1H-pyrazol-5-yl)methyl]piperidin 4-yl}-3-[(4-fluorophenyl)amino]-1H-pyrazole-4-carboxamide]	35 nM
